pIC50: −log10 of the molar value. Where two headings read alike, the source gives them in different places.
Experiments:
BCAT1 = target: T1, BCAT1 (Homo sapiens, UniProt P54687); experiment: BCAT1 enzyme inhibition (human), Glutamate Glo luminescence; assay type: biochemical
T1 sequence (P54687 1-386): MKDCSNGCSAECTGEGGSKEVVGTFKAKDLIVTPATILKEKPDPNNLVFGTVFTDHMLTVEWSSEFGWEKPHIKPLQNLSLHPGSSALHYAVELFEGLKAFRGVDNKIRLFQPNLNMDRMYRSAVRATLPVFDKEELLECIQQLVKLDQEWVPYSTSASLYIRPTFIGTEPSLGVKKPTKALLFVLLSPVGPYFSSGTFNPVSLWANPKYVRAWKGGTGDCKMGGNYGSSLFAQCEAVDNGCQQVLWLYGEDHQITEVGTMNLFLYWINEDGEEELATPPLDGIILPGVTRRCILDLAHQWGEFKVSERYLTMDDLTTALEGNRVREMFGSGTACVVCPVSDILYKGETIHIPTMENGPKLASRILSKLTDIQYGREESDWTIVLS
Procedure: The BCAT1 inhibitory activity of selected compounds of the present disclosure were also evaluated. Compounds were prepared as up to 10 mM stock solutions generally using DMSO as the vehicle. 10-point dose response curves were generated using the Echo-550 (Labcyte) acoustic dispenser. Compound source plates ([…]) were made by serially diluting compound stocks to create 1 mM, 0.1 mM, and 0.01 mM solutions in DMSO into Echo certified LDV plates. The Echo then serially spotted 100% DMSO stock solutions into source dose response plates to generate a semi-log fold dilution scheme. 100% DMSO was added to the spotted dose response plates to bring the final volume to 5 μL, creating a 333× stock plate. 120 nL of the dose response stock plate was then spotted into the assay plate. 10 μL of assay buffer (50 mM Tris with 0.05% TWEEN-20) was then added to the plates resulting in a 4× working concentration in the assay plate. Final assay test concentration range was 3 μM to 0.0001 μM with a final DMSO concentration of 0.3%.
BCAT1 enzyme stock was first diluted to a 4× working concentration of 0.24 μg/mL in assay buffer (final assay concentration is 0.06 ug/ml). 10 μL of the 4×BCAT1 solution was then added to the previously prepared assay plate containing test compound or controls, and incubated at room temperature, protected from light, for either 10 or 60 minutes. After the compound incubation period, 20 μL of assay buffer plus 2× substrate is added to all wells (Final assay concentration of substrates is 300 μM L-leucine and 250 μM alpha-ketoglutaric acid). Enzyme reaction was then incubated for 10 minutes at room temperature. After the 10 minute incubation, the enzymatic reaction was halted with the addition of 5 μL of 0.6N HCl and incubated for 1 min. 5 μL of 1M Tris (pH 8.0) was then added to neutralize pH. 12.5 μL of the quenched assay volume was then transferred to a white, 384 well plate and 12.5 μL of Glutamate detection reagent was added (detection reagent prepared per Promega Glutamate Glo kit instructions). Plates were then incubated for 30 minutes at room temperature, protected from light. After glutamate detection incubation period, luminescence was read on BMG Novostar and relative light units was measured and exported for analysis.
Compound modulation of BCAT1 enzymatic activity was determined as follows. IC50 values were calculated in ActivityBase, using a 4-parameter fit equation. Data was normalized to maximum inhibition form the reference agent VS558CSA (at 10 μM). Relative light units were exported for analysis and % inhibition values for each well were calculated using the following formula: […]

BCAT2 = target: T2, BCAT2 (Homo sapiens, UniProt O15382); experiment: BCAT2 enzyme inhibition (human); assay type: biochemical
T2 sequence (O15382 28-392): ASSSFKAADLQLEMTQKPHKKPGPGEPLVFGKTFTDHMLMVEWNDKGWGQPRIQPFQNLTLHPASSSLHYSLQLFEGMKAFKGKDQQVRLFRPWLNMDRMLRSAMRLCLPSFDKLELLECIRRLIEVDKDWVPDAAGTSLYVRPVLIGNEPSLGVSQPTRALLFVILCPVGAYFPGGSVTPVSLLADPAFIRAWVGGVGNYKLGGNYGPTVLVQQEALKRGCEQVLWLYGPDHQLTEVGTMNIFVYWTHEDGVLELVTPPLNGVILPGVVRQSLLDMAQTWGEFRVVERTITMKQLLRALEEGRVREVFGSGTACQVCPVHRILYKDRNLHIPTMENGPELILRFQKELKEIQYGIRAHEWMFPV
Procedure: In further embodiments, the functional modulation of BCAT2 is assayed using a cell-free assay. In various embodiments, the cell-free assay is an enzyme-coupled fluorescent assay. For example, the disclosure contemplates use of an assay that monitors the production of L-glutamate from branch-chain amino acids and α-ketoglutarate through the coupling of hBCATm activity to two additional enzymes, L-Glutamate Oxidase (L-GOx) and Horseradish Peroxidase (HRP). Specifically, L-GOx catabolizes L-glutamate to generate α-ketoglutarate and […], the latter being utilized by HRP and leading to the formation of fluorescent resorufin from the redox-sensitive dye Amplex Red. In some embodiments, the test compound is classified as a candidate compound if a decrease in L-glutamate is measured. In further embodiments, the test compound is classified as a candidate compound if a decrease in α-ketoglutarate is measured.

GM00371 cells = experiment: Viability assay (Cell titer glo) in the 3-HIB assay; assay type: cell-based, human; conditions: read-out: 3HIB INHIBITION IC50 (μM) MEAN GM00371 cells Viablility Assay
Procedure: Cell Plating: Cells (Coriell Institute GM00371 cells) were plated (96-well clear bottom sterile plate; Greiner 655098) at 10,000 cells/0.1 mL in Eagle's minimum essential medium (EMEM)/15% FBS (Gibco 16000-044) with a Combi dispenser in a cell culture hood and incubated at 37° C. and 5% CO2 overnight.
Compound Dilution: Compound were prepared as 33.3× intermediate dilution in DMSO in 96 well round polystyrene plates. For 30 μM final maximum start with 30 μL of 10 mM in DMSO. 10-12 1:3 serial dilutions were prepared from left to right (20 μL+40 μL DMSO). A 10× secondary dilution was prepare in EMEM by taking 7.5 μL 33.3× and transfer to replicate 96 well round polystyrene plates and then adding 242.5 μL EMEM A 1× final dilution in EMEM was prepared by taking 50 μL 10× dilution and transferring to replicate 96 well polypropylene assay block (Costar 3956) and adding 450 μL EMEM A control was prepared for maximal compound inhibition by taking 20 μL 10 mM Reference Compound A and adding 40 μL DMSO for a concentration of 3.3 mM To 7.5 μL of the 3.3 mM Reference Compound A solution and added 242.5 μL EMEM to make a 100 μM solution. The subsequent Reference Compound A solution was diluted with EMEM to achieve a final concentration of 10 μM. The structure of Reference Compound A is:
A control was prepared for maximal compound toxicity by taking 7.5 μL Reference Compound B and 242.5 μL EMEM to make […]. 50 μL of that 100 μM Reference Compound B solution was combined with 450 μL EMEM to achieve a concentration of 30 μM. The structure of Reference Compound B is
Compound Treatment: Media was aspirated from the cells and 100 μL of D-PBS (ThermoFisher 14190144) was added and then removed. 100 μL of diluted compound was added to the cells in the place and the cells were incubated at 37° C. and 5% CO2 for 24 hours.
Viability Assay: To the cells remaining in the plate 25 μL D-PBS and 25 μL Cell titer glo reagent (Promega G7572). The plate was placed on a shaker for 2 minutes, incubated at room temperature in the dark and then read on a Clariostar microplate reader.

SMILES | pIC50 (BCAT1) | pIC50 (BCAT2) | IC50 (GM00371 cells; Homo sapiens, 24 h) | IC50 (GM00371 cells; 24 hours)
N#Cc1ccc2c(c1)nc(-c1ccccn1)n2[C@H]1CCC[C@@H](NC(=O)c2ccc(Br)s2)C1 [Compound 194] | ≤ 6.00 | > 7.00 |  | 
N#Cc1ccc2c(c1)nc(-c1ccccn1)n2[C@H]1CCC[C@@H](NC(=O)c2ccc(Cl)s2)C1 [Compound 195] | ≤ 6.00 | > 7.00 |  | 
CNC(=O)c1ccc2c(c1)nc(-c1ccccc1F)n2[C@H]1CCC[C@@H](C(=O)Nc2ccccc2)C1 [Compound 202] | ≤ 6.00 | < 6.00 |  | 
CNC(=O)c1ccc2c(c1)nc(-c1ccccc1C#N)n2[C@H]1CCC[C@@H](C(=O)Nc2ccccc2)C1 [Compound 203] | ≤ 6.00 | < 6.00 |  | 
CCCNC(=O)c1ccc2c(c1)nc(-c1ccccn1)n2[C@@H]1CCC[C@H](NC(=O)c2ccc(Br)s2)C1 [Compound 204] | ≤ 6.00 | 6.30 to 7.00 |  | 
CNC(=O)c1ccc2c(c1)nc(-c1ccccn1)n2C1CCCN(C(=O)Nc2cccc(Cl)c2)C1 (stereo not shown) [Compound 217] | ≤ 6.00 | < 6.00 |  | 
CNC(=O)c1ccc2c(c1)nc(-c1cccc(F)c1)n2C1CCCN(C(=O)Nc2ccccc2Cl)C1 (stereo not shown) [Compound 227] | ≤ 6.00 | < 6.00 |  | 
CNC(=O)c1ccc2c(c1)nc(-c1cccc(F)c1)n2C1CCCN(C(=O)Nc2cccs2)C1 (stereo not shown) [Compound 228] | ≤ 6.00 | < 6.00 |  | 
CNC(=O)c1ccc2c(c1)nc(-c1cccc(F)c1)n2C1CCCN(C(=O)Nc2ccc(Br)s2)C1 (stereo not shown) [Compound 229] | ≤ 6.00 | < 6.00 |  | 
CNC(=O)c1ccc2c(C3CCCC(NC(=O)c4ccc(Br)s4)C3)c(-c3ccccc3)[nH]c2c1 (stereo not shown) [Compound 283, 3-(3-(5-bromothiophene-2-carboxamido)cyclohexyl)-N-methyl-2 phenyl-1H-indole-6-carboxamide] |  | < 6.00 | ≥ 1 µM | 
CNC(=O)c1ccc2c(C3CCCC(NC(=O)c4cccs4)C3)c(-c3ccccc3)[nH]c2c1 (stereo not shown) [Compound 290] |  | < 6.00 | ≥ 1 µM | 
CNC(=O)c1ccc2c(C3CCCC(NC(=O)c4ccc(-c5ccccc5)s4)C3)c(-c3ccccc3)[nH]c2c1 (stereo not shown) [Compound 304] |  | < 6.00 | ≥ 1 µM | 

More lines, main results first:

pIC50 (BCAT1) | pIC50 (BCAT2) | SMILES | IC50 (GM00371 cells; Homo sapiens, 24 h) | IC50 (GM00371 cells; 24 hours)
≤ 6.00 |  | CNC(=O)c1ccc2c(c1)nc(-c1ccccn1)n2[C@@H]1CCC[C@@H](NC(=O)c2ccc(Br)s2)C1 [Compound 101] |  | 
≤ 6.00 | > 7.00 | CNC(=O)c1ccc2c(c1)nc(-c1ncccn1)n2[C@H]1CCC[C@@H](NC(=O)c2ccc(Br)s2)C1 [Compound 147] |  | 
≤ 6.00 | 6.30 to 7.00 | CNC(=O)c1ccc2c(c1)nc(-c1cnccn1)n2[C@H]1CCC[C@@H](NC(=O)c2ccc(Br)s2)C1 [Compound 149] |  | 
≤ 6.00 | < 6.00 | CNC(=O)c1ccc2c(c1)nc(-c1ccc(O)cn1)n2[C@H]1CCC[C@@H](NC(=O)c2ccc(C#N)s2)C1 [Compound 173] |  | 
6.00 to 6.30 | > 7.00 | CNC(=O)c1ccc2c(c1)nc(-c1c(O)ccc(F)c1F)n2[C@H]1CCC[C@@H](NC(=O)c2ccc(Br)s2)C1 [Compound 180] |  | 
 | > 7.00 | CNC(=O)c1cc2nc(-c3ccccc3F)n([C@H]3CCC[C@@H](NC(=O)c4ccc(Br)s4)C3)c2cc1OC [Compound 213] | < 0.1 µM | 
 | > 7.00 | CNC(=O)c1cc2nc(-c3ccccn3)n([C@H]3CCC[C@@H](NC(=O)c4ccc(Cl)s4)C3)c2cc1OC [Compound 214] | 0.1 to 0.5 µM | 
 | > 7.00 | CNC(=O)c1ccc2c(c1)nc(-c1c(F)cccc1F)n2[C@H]1CCC[C@@H](NC(=O)c2ccc(Br)s2)C1 [Compound 215] |  | 0.1 to 0.5 µM
 | > 7.00 | CNC(=O)c1ccc2c(c1)nc(-c1cccc(F)n1)n2[C@H]1CCC[C@@H](NC(=O)c2ccc(Br)s2)C1 [Compound 216] | ≥ 1 µM | 
≤ 6.00 | > 7.00 | CNC(=O)c1cc2nc(-c3c(F)ccc(F)c3O)n([C@H]3CCC[C@@H](NC(=O)c4ccc(Cl)s4)C3)c2cc1F [Compound 231] |  | 
≤ 6.00 | > 7.00 | CNC(=O)c1cc2nc(-c3c(F)ccc(F)c3O)n([C@H]3CCC[C@@H](NC(=O)c4ccc(C#N)s4)C3)c2cc1F [Compound 232] |  | 
6.00 to 6.30 | > 7.00 | CNC(=O)c1cc2nc(-c3c(F)ccc(F)c3O)n([C@H]3CCC[C@@H](NC(=O)c4ccc(Br)s4)C3)c2cc1F [Compound 233] |  | 
≤ 6.00 | 6.00 to 6.30 | CNC(=O)c1cc2nc(-c3ccccn3)n([C@H]3CCC[C@@H](NC(=O)c4ccc(Cl)s4)C3)c2cc1Cl [Compound 235] |  | 
≤ 6.00 | 6.30 to 7.00 | CNC(=O)c1cc2nc(-c3ncccc3F)n([C@H]3CCC[C@@H](NC(=O)c4ccc(Cl)s4)C3)c2cc1Cl [Compound 236] |  | 
≤ 6.00 | 6.30 to 7.00 | CNC(=O)c1cc2nc(-c3ncccc3F)n([C@H]3CCC[C@@H](NC(=O)c4ccc(Br)s4)C3)c2cc1Cl [Compound 237] |  | 
 | > 7.00 | CNC(=O)c1cc2nc(-c3ccccc3)n([C@H]3CCC[C@@H](NC(=O)c4ccc(Br)s4)C3)c2cn1 [Compound 297] | 0.1 to 0.5 µM | 
